Experimental data reported in US20250177405A1, “METHODS OF TREATING NEUROLOGICAL AND CARDIOVASCULAR CONDITIONS” (ASTROCYTE PHARMACEUTICALS, INC., priority 2021, published 2025).

Legend:
[1] = system: cynomolgus monkey model of transient middle cerebral artery occlusion (tMCAO); experiment: transient middle cerebral artery occlusion (tMCAO) stroke model, MRI lesion and penumbra volume; assay type: in vivo, Macaca fascicularis; settings: for overall DWI lesion volume smaller compared to vehicle: I-1 composite
From the text: A total of 25 adult male Macaca fascicularis macaques were used in this study, with ages ranging from 47-83 months and weights ranging from 2.7-5.4 kg.
Under deep anesthesia, the right eyeball was removed, and the orbital content was dissected and excised using a surgical microscope (KOM300, Konan Medical Inc., Hogo, Japan). A window of approximately 10 mm in diameter was opened just anterior to the foramen of the optic canal at the base of the skull, allowing identification of the right middle cerebral artery (MCA) main trunk beneath the dura. After opening the dura mater, tMCAO was performed using 2 microvascular clips (Sugita TII, 17-001-81, Mizuho Medical, Tokyo, Japan), one on the proximal part of the main MCA trunk and the other on the distal-to-orbitofrontal brunch. Four hours after tMCAO, these clips were removed. After visual confirmation of recanalization of MCA blood flow, the burr hole was closed using Clearfil New Bond (Kuraray Noritake Dental, Inc., Tokyo, Japan) and the orbital cavity was closed according to best veterinary practice.
Transorbital transient MCA occlusion (tMCAO) was performed using 2 microvascular clips, one placed on the proximal part of the main MCA trunk and the other on the distal-to-orbitofrontal branch (references 10, 11, 24). Four hours after MCA occlusion, these clips were removed for recanalization. After visual confirmation of restituted MCA blood flow, the burr hole was closed using Clearfil New Bond (Kuraray Noritake Dental, Inc., Tokyo, Japan) and the orbital cavity was closed according to best veterinary practice.
Serial coronal magnetic resonance imaging (MRI) of the brain (3 mm slice thickness) was performed 0.5, 1.5, 1.8, 3.5, 6.0, 24 and 120 h post-occlusion. Imaging sequences were (i) diffusion-weighted imaging (DWI), arterial spin labeling (ASL), (ii) magnetic resonance angiography (MRA), and (iii) fluid-attenuated inversion-recovery (FLAIR) T2-weighted imaging. Apparent diffusion coefficient (ADC) maps, cerebral blood flow (CBF), and perfusion deficit were generated with FuncTool Performance (GE Healthcare, Milwaukee, WI, USA) available on the MRI scanner console. Inhibition of lesion volume was considered the primary efficacy endpoint. Penumbral volume (mm^3) was calculated by subtracting the lesion volume delineated from the DWI diffusion maps from the total calculated perfusion deficit.
The infarct (lesion) areas (mm^2) of each coronal image were marked using OsiriX version 8.0.2 (Pixmeo SARL, Bernex, Switzerland). The infarct was manually delineated using DWI maps. The lesion volume (mm^3) was calculated as the sum of the product of each section's infarct area and slice thickness (3 mm). […] The perfusion deficit (mm^3) was calculated from ASL maps as a reduction to <30% and <50% of the corresponding region of the contralateral side. […] Penumbral volume (mm^3) was calculated by subtracting the lesion volume delineated from the DWI diffusion maps from the total calculated perfusion deficit.
Macaques received a bolus dose of vehicle (40% PEG400 in 0.9% saline) or I-1 into a saphenous vein 2 h after occlusion (2 h prior to restoration of MCA blood flow), followed immediately by a 22 h intravenous infusion. This dosing regimen was designed to rapidly achieve and maintain pre-determined plasma and cerebrospinal fluid (CSF) steady-state concentrations of I-1 based on its pharmacokinetics previously determined in näive and MCA occluded macaques (Tables A-C below).

[2] = plasma protein binding (free fraction); assay type: in vitro ADME; settings: mouse
From the text: Example 3 of U.S. Pat. No. 9,789,131, which is incorporated herein by reference, describes assays for determining the plasma and brain free fraction of certain compounds such as I-1. Compounds described herein may be evaluated using such assays or similar variants thereof.

[3] = neonatal pig pharmacokinetics: CSF versus brain extracellular fluid concentrations; assay type: in vivo; settings: brain equilibrium dialysis
From the text: Using this receptor occupancy estimate, we advanced to studies in neonatal pigs, targeting doses that would yield unbound brain and CSF concentrations that would provide a similar receptor occupancy to that associated with efficacy in the rodent models. In the pig, we had the advantage of conducting pharmacokinetic studies involving CSF collection, brain equilibrium dialysis to directly determine brain unbound extracellular fluid concentrations, plasma concentrations and finally total brain concentrations. […] This was a key study to validate the use of I-1 CSF concentrations to estimate brain receptor occupancy. In the pig efficacy studies, we achieved efficacy at estimated receptor occupancies of around 2%.
Animals. Four-week old female neonatal pigs weighing approximately 7.5 Kg may be used for this study. Animals are equipped with brain microdialysis probes to obtain brain extracellular fluid samples for drug concentration determinations during the study.
Tissue Sampling: Blood samples are obtained at 0.25, 0.5, 1, 2, 4 and 6 hours post-dose. […]
Plasma, brain, brain extracellular fluid and cerebrospinal fluid concentrations of test compound are determined by LC-MS/MS utilizing tolbutamide as an internal standard. For each tissue matrix, standard curves are created and LLOQ/ULOQ concentrations determined.

brain A1R/A3R = experiment: estimated brain receptor occupancy of I-1 in rodent efficacy studies; assay type: in vivo; settings: mouse and rat efficacy models, from brain unbound drug concentrations
From the text: Receptor occupancy is a mass action relationship:
The percentage of a receptor occupied by an agonist or antagonist is a function of the drug concentration and the drug affinity for the receptor target. The challenge is that drug concentrations at the target site (in this case, brain, and CSF) can vary by species, as can affinity for the drug target. Affinity of I-1 for its receptor target can vary by as much as 5-fold between species. Accordingly, for each species, it is necessary to determine the I-1 affinity for its target as well as the concentration of I-1 at each administered dose in a relevant matrix.
In our rodent mouse and rat efficacy studies, we were able to directly determine brain unbound drug concentrations at efficacious doses. In those efficacy models, the estimated receptor occupancies associated with efficacy were around 1% or less.

Which results are given for `CSc1nc(N)c2ncn([C@H]3C(O)C(O)[C@]4(CO)C[C@H]34)c2n1` (stereo in doubt) [Compound I-1]?
lesion growth rate (slope of lesion growth) after treatment initiation ([1]; 1.8-6.0 h post-occlusion, versus vehicle and pre-treatment, composite p=0.004): rapid decrease in lesion growth rate; decrease in penumbra volume during the ischemic period ([1]; I-1-treated composite (n=16), 0.5 h to 3.5 h post-occlusion, vehicle 71%, p=0.01): 48%; rate of penumbra volume decrease ([1]; I-1-treated composite, vehicle 604.5 mm^3/h): 296.0 mm^3/h; overall DWI lesion volume smaller compared to vehicle ([1]; 24 h post-occlusion, p=0.07): 20%; overall DWI lesion volume smaller compared to vehicle ([1]; 120 h post-occlusion, p=0.05): 30%; free (unbound) fraction in plasma [2]: 0.74; I-1 concentrations in the CSF versus unbound brain extracellular fluid [3]: equal to unbound brain extracellular fluid concentrations; estimated receptor occupancies associated with efficacy (brain A1R/A3R): ≤ 1%
